Several values for one entry are separate records, joined by “and”; a condition that tells them apart may be missing. Identical values can stand only once.

For one experiment, the target named is T1, OR2W1 (Homo sapiens, UniProt Q9Y3N9).
T1 sequence (Q9Y3N9 1-320): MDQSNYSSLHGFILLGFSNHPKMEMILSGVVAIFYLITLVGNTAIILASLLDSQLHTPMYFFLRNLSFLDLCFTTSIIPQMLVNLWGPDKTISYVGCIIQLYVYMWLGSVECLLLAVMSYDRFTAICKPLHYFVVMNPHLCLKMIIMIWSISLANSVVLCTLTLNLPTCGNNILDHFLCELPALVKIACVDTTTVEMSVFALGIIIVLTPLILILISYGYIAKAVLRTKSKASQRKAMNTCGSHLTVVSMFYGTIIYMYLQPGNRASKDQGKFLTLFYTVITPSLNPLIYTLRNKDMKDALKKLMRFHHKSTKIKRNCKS
As to the kind of experiment: Dual-Glo luciferase reporter gene assay, OR2W1 in Hana3A cells. It counts as cell-based. More on the design: The open reading frames of ORs were amplified using Phusion polymerase; Rho-tag (first 20 amino acids of human rhodopsin) (N); expressed in transfected cells; host or cells: Hana3A cells (derived from HEK293T), pCI vector; co-transfected with human RTP1S, M3 receptor, CRE-Luc and SV40-RL. The note with it: for activation of OR2W1 in dose-responses: Figure 4B; for Bottom / Top: log(agonist) vs. response (three parameters), normalized (L-400/R-400); for normilazed value = (L-400/R-400): three replicates. The method, then:
(§1) Hana3A cells were maintained in minimal essential medium containing 10% FBS (vol/vol) with penicillin-streptomycin and amphotericin B (1/200 each vol/vol) at 37 °C and 5% CO2. Hana3A cells are derived from HEK293T [57] and are optimized for OR studies as shown in several studies, compared to earlier OR expression in Sf9 insect cells in Gat et al., and in Xenopus oocytes, COS-7, PC12h and CHO-K1 cells in Katada et al..
(§2) The Dual-Glo luciferase assay system (Promega, Madison, WI, USA) was used to evaluate the functionality of wild-type OR1A1 and OR2W1 in an in vitro system. The open reading frames of ORs were amplified using Phusion polymerase (Thermo Fisher Scientific, Waltham, MA, USA). Amplified fragments were cloned into pCI expression vector (Promega, Madison, WI, USA) containing the sequence encoding the first 20 amino acids of human rhodopsin (Rho-tag) at N-terminal. Hana3A cells have been cultured and plated the day before transfection with 6 mL at 1/10 of a 100% confluence 100 mm plate into 96-well plates coated with poly D-lysine. After overnight incubation, the required genes were transfected using, for each plate, 5 ng SV40-RL, 10 ng CRE-Luc, 5 ng human RTP1S [72], 2.5 ng M3 receptor [73] and 5 ng of receptor (OR1A1, OR2W1 or empty vector Rho-pCI) plasmid. After around 18 h of transfection, cells were stimulated during 3.5 h by 25 µL of odorant diluted in CD293 + 1% glutamine + 30 µM CuCl2. Odorants were obtained from Sigma Aldrich (St. Louis, MO, USA) and diluted at 1 M concentration in DMSO as stock solutions. […] The luminescence of Firefly (Luc) and Renilla (Rluc) luciferase, were then sequentially monitored by injecting the corresponding substrate following the supplier’s protocol. The activity in each well was normalized as (Luc-400)/(Rluc-400). The response of the receptor was also normalized to its basal activity as (NLX/NL0)-1 where NL0 is the normalized luminescence value at 0 µM of odorant and NLX the value at X µM. […] Raw results were first analyzed with Excel (Microsoft Corporation, Albuquerque, NM, USA) and dose response curves, max efficacy and EC50 have been determined with GraphPrism 6 software (GraphPad Software, La Jolla, CA, USA). Areas under the curves (AUC) were calculated in Excel by summing all the OR responses at different concentrations for each odorant.

For a further experiment, the target named is T2, OR1A1 (Homo sapiens, UniProt Q9P1Q5).
T2 sequence (Q9P1Q5 1-309): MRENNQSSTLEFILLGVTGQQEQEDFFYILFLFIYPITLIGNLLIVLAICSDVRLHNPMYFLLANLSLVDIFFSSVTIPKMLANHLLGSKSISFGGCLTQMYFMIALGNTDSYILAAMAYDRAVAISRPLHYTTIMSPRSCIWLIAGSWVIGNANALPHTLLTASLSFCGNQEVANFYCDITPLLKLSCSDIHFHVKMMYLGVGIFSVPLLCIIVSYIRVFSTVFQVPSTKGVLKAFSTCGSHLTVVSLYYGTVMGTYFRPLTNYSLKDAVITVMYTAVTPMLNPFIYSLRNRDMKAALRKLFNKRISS
As to the kind of experiment: Dual-Glo luciferase reporter gene assay, OR1A1 in Hana3A cells. It counts as cell-based. More on the design: The open reading frames of ORs were amplified using Phusion polymerase; Rho-tag (first 20 amino acids of human rhodopsin) (N); expressed in transfected cells; host or cells: Hana3A cells (derived from HEK293T), pCI vector; co-transfected with human RTP1S, M3 receptor, CRE-Luc and SV40-RL. The conditions noted are these: for normilazed value = (L-400/R-400): three replicates. The method, then:
as §1, §2
On the technique in general: Reporter assays use an easily measured gene product as a stand-in for the process of interest.

[1] abbreviates: OR2W1, 95% CI (profile likelihood).
[2] abbreviates: OR1A1, log(agonist) vs. response (three parameters), 95% CI (profile likelihood), normalized (L-400/R-400).

Turning to `C=Cc1ccc(OCCCCOc2ccc(C=C)cc2)cc1` [1-Ethenyl-4-[4-(4-ethenylphenoxy)butoxy]benzene], at OR2W1, the “activation of OR2W1 in dose-responses” value is recorded as “non-agonist”. The same compound yielded a Bottom at OR2W1 (setting [1]) of 13.33 to 18.34. Besides, the Top at OR2W1 (setting [1]) lay within 19.48 to 21.36. Also, the “normilazed value = (L-400/R-400)” value at OR2W1 (OR2W1, log[molecule], M = -3.5, listed as 1,4 bis(4-vinylphenoxy)butane) was 14.9951 and 16.6432 and 18.6473; at OR2W1 (OR2W1, log[molecule], M = -3.75, listed as 1,4 bis(4-vinylphenoxy)butane), 18.9044 and 23.5612 and 19.9145; at OR2W1 (OR2W1, log[molecule], M = -4, listed as 1,4 bis(4-vinylphenoxy)butane), 20.1703 and 23.9778 and 22.651; on OR2W1 (OR2W1, log[molecule], M = -4.25, listed as 1,4 bis(4-vinylphenoxy)butane), 19.282 and 20.5728 and 18.4952; at OR2W1 (OR2W1, log[molecule], M = -4.5, listed as 1,4 bis(4-vinylphenoxy)butane), 18.9465 and 18.6061 and 21.68; at OR2W1 (OR2W1, log[molecule], M = -4.75, listed as 1,4 bis(4-vinylphenoxy)butane), 18.1682 and 21.4587 and 25.3103. In addition, the “normilazed value = (L-400/R-400)” value was 19.2619 and 21.2657 and 21.338 at OR2W1 (OR2W1, log[molecule], M = -5, listed as 1,4 bis(4-vinylphenoxy)butane); 22.445 and 21 and 22.2921 on OR2W1 (OR2W1, log[molecule], M = -5.25, listed as 1,4 bis(4-vinylphenoxy)butane); 19.9195 and 18.3482 and 19.8887 on OR2W1 (OR2W1, log[molecule], M = -5.5, listed as 1,4 bis(4-vinylphenoxy)butane); 21.6432 and 19.6062 and 21.4331 at OR2W1 (OR2W1, log[molecule], M = -5.75, listed as 1,4 bis(4-vinylphenoxy)butane); 16.9263 and 20.1438 and 17.6109 at OR2W1 (OR2W1, log[molecule], M = -6, listed as 1,4 bis(4-vinylphenoxy)butane).
On to `CCOc1ccc2ccccc2c1` [2-Ethoxynaphthalene], for which the “activation of OR2W1 in dose-responses” value at OR2W1 was “activated OR2W1 in a dose-response manner”. Moreover, on OR2W1 (OR2W1, comparison with ref 14), the “potency relative to the strongest OR2W1 agonist of Bushdid et al.” value is listed as “two times more potent”. In addition, the Bottom at OR2W1 (setting [1]) is listed as 9.687 to 19.33. Also, on OR2W1 (setting [1]), the Top was 32.32 to 36.67. For the same compound, the “normilazed value = (L-400/R-400)” value on OR2W1 (OR2W1, log[molecule], M = -3.5) is 30.4896 and 23.1676 and 21.7127; at OR2W1 (OR2W1, log[molecule], M = -3.75) it was 33.5459 and 34.0167 and 35.7983; on OR2W1 (OR2W1, log[molecule], M = -4) it was 29.5332 and 32.1424 and 36.1752; on OR2W1 (OR2W1, log[molecule], M = -4.25) it was 38.6596 and 38.9119 and 38.3122; at OR2W1 (OR2W1, log[molecule], M = -4.5), 28.5017 and 40.4493 and 38.4842; at OR2W1 (OR2W1, log[molecule], M = -4.75), 39.1645 and 34.3635 and 36.5051. The “normilazed value = (L-400/R-400)” value at OR2W1 (OR2W1, log[molecule], M = -5) is 30.1654 and 33.9031 and 33.7738; on OR2W1 (OR2W1, log[molecule], M = -5.25), 31.8777 and 31.6329 and 33.9788; on OR2W1 (OR2W1, log[molecule], M = -5.5), 30.0044 and 26.9494 and 25.4775; on OR2W1 (OR2W1, log[molecule], M = -5.75), 22.1602 and 26.5902 and 25.5852; at OR2W1 (OR2W1, log[molecule], M = -6), 23.2783 and 19.1056 and 20.6534. In addition, the EC50 – broadly, the concentration giving half of the maximal effect – at OR2W1 (OR2W1, three-parameter fit, 95% CI (profile likelihood)) was 0.659 to 3.05 µM. Also, the LogEC50 on OR2W1 (OR2W1, three-parameter fit, 95% CI (profile likelihood), log[molecule], M) is on record as -6.181 to -5.515.
Regarding `COC(=O)Cc1ccccc1C` [Methyl 2-(2-methylphenyl)acetate], on OR1A1 (Figure 4A), the “activation of OR1A1 in dose-responses” value is “able to activate OR1A1”. The EC50 at OR1A1 (OR1A1, 95% CI) lay within 12.2 to 25 µM; on OR1A1 (OR1A1, three-parameter fit, 95% CI (profile likelihood)) it was 12.2 to 25 µM. This compound showed a Bottom at OR1A1 (setting [2]) of 0.03511 to 1.535. In addition, the Top on OR1A1 (setting [2]) lay in the range of 11.79 to 13.66. The “normilazed value = (L-400/R-400)” value on OR1A1 (OR1A1, log[molecule], M = -3.5) was 10.0524 and 12.0337 and 11.3132; on OR1A1 (OR1A1, log[molecule], M = -3.75), 12.5278 and 11.5014 and 12.1842; on OR1A1 (OR1A1, log[molecule], M = -4), 10.2366 and 11.6676 and 13.2311; on OR1A1 (OR1A1, log[molecule], M = -4.25), 7.699 and 8.952 and 12.582; on OR1A1 (OR1A1, log[molecule], M = -4.5), 7.699 and 8.491 and 8.724; at OR1A1 (OR1A1, log[molecule], M = -4.75) it was 5.333 and 7.756 and 8.263. Besides, the “normilazed value = (L-400/R-400)” value is 4.586 and 4.422 and 5.725 on OR1A1 (OR1A1, log[molecule], M = -5); 3.435 and 3.266 and 4.088 on OR1A1 (OR1A1, log[molecule], M = -5.25); 2.183 and 2.432 and 2.624 on OR1A1 (OR1A1, log[molecule], M = -5.5); 1.457 and 1.905 and 2.354 at OR1A1 (OR1A1, log[molecule], M = -5.75); 1.1663 and 1.179 and 1.777 on OR1A1 (OR1A1, log[molecule], M = -6). In addition, at OR1A1 (OR1A1, three-parameter fit, 95% CI (profile likelihood), log[molecule], M), the LogEC50 is on record as -4.914 to -4.603.

Source of the values: paper PMC8583936, “Machine Learning Assisted Approach for Finding Novel High Activity Agonists of Human Ectopic Olfactory Receptors” (International Journal of Molecular Sciences, 2021).
